Tests used:
[1] = system: common chickweed, Stellaria media; experiment: Herbicidal efficacy screen, potter tower spray, necrosis assessed; assay type: in vivo
Procedure: (§1) Compounds 22, 23 and 24 were screened for herbicidal efficacy against target plants: garden cress, Lepidium sativum, common chickweed, Stellaria media, and white mustard […] alba Plants were obtained as seeds and were grown to the 2-4 true leaf stage. Plants were grown under laboratory conditions, individually in seed trays. Each plant (in an approximately 3 cm diameter plug) was then detached from the tray for spraying. The compounds were screened at a range of five concentrations, diluted in acetone and TweenTM. A carrier only control was also conducted. Treatments were applied directly onto the plants, using a potter tower, at a specified application rate. One plant of each species was sprayed using a potter tower. The 3 different types of plants were placed on a 10 cm diameter platform directly beneath the potter sprayer and sprayed simultaneously. The growth of the plants and any Phytotoxicity effects were then assessed at intervals over 21 days, according to EPPO guideline PP1/135. Five replicas were performed for each treatment, for each species. In the tables below C represents a percentage increase in necrosis relative to the control of 0.1-50; B represents a percentage inhibition of 50-80; and A represents a percentage inhibition of 80-100.

[2] = system: garden cress, Lepidium sativum; experiment: as above; assay type: in vivo
Procedure: as §1

[3] = 12.5 g/ha, day 1 post application
[4] = 12.5 g/ha, day 2 post application
[5] = 12.5 g/ha, day 3 post application
[6] = 12.5 g/ha, day 4 post application
[7] = 12.5 g/ha, day 5 post application
[8] = 12.5 g/ha, day 7 post application
[9] = 12.5 g/ha, day 10 post application
[10] = 25 g/ha, day 1 post application
[11] = 25 g/ha, day 2 post application
[12] = 25 g/ha, day 3 post application
[13] = 25 g/ha, day 4 post application
[14] = 25 g/ha, day 5 post application
[15] = 25 g/ha, day 7 post application
[16] = 25 g/ha, day 10 post application
[17] = 50 g/ha, day 1 post application
[18] = 50 g/ha, day 2 post application
[19] = 50 g/ha, day 3 post application
[20] = 50 g/ha, day 4 post application
[21] = 50 g/ha, day 5 post application
[22] = 50 g/ha, day 7 post application
[23] = 50 g/ha, day 10 post application
[24] = 100 g/ha, day 1 post application
[25] = 100 g/ha, day 2 post application
[26] = 100 g/ha, day 3 post application
[27] = 100 g/ha, day 4 post application
[28] = 100 g/ha, day 5 post application
[29] = 100 g/ha, day 7 post application
[30] = 100 g/ha, day 10 post application
[31] = 200 g/ha, day 1 post application
[32] = 200 g/ha, day 2 post application
[33] = 200 g/ha, day 3 post application
[34] = 200 g/ha, day 4 post application

CC(C)C(C)S(=O)(=O)NCc1cc(-n2c(=O)cc(C(F)(F)F)n(C)c2=O)c(F)cc1Cl (stereo not shown) [Compound 24, N-[[2-Chloro-4-fluoro-5-[3-methyl-2,6-dioxo-4-(trifluoromethyl)pyrimidin-1-yl]phenyl]methyl]-3-methyl-butane-2-sulfonamide]
Average of necrosis [1, 3]: C (C represents a percentage increase in necrosis relative to the control of 0.1-50) | Average of necrosis [1, 4]: C (C represents a percentage increase in necrosis relative to the control of 0.1-50) | Average of necrosis [1, 5]: C (C represents a percentage increase in necrosis relative to the control of 0.1-50) | Average of necrosis [1, 6]: C (C represents a percentage increase in necrosis relative to the control of 0.1-50) | Average of necrosis [1, 7]: C (C represents a percentage increase in necrosis relative to the control of 0.1-50) | Average of necrosis [1, 8]: C (C represents a percentage increase in necrosis relative to the control of 0.1-50) | Average of necrosis [1, 9]: C (C represents a percentage increase in necrosis relative to the control of 0.1-50) | Average of necrosis [1, 10]: C (C represents a percentage increase in necrosis relative to the control of 0.1-50) | Average of necrosis [1, 11]: C (C represents a percentage increase in necrosis relative to the control of 0.1-50) | Average of necrosis [1, 12]: C (C represents a percentage increase in necrosis relative to the control of 0.1-50) | Average of necrosis [1, 13]: C (C represents a percentage increase in necrosis relative to the control of 0.1-50) | Average of necrosis [1, 14]: C (C represents a percentage increase in necrosis relative to the control of 0.1-50) | Average of necrosis [1, 15]: C (C represents a percentage increase in necrosis relative to the control of 0.1-50) | Average of necrosis [1, 16]: C (C represents a percentage increase in necrosis relative to the control of 0.1-50) | Average of necrosis [1, 17]: C (C represents a percentage increase in necrosis relative to the control of 0.1-50) | Average of necrosis [1, 18]: C (C represents a percentage increase in necrosis relative to the control of 0.1-50) | Average of necrosis [1, 19]: C (C represents a percentage increase in necrosis relative to the control of 0.1-50) | Average of necrosis [1, 20]: C (C represents a percentage increase in necrosis relative to the control of 0.1-50) | Average of necrosis [1, 21]: A (A represents a percentage inhibition of 80-100) | Average of necrosis [1, 22]: A (A represents a percentage inhibition of 80-100) | Average of necrosis [1, 23]: A (A represents a percentage inhibition of 80-100) | Average of necrosis [1, 24]: C (C represents a percentage increase in necrosis relative to the control of 0.1-50) | Average of necrosis [1, 25]: C (C represents a percentage increase in necrosis relative to the control of 0.1-50) | Average of necrosis [1, 26]: C (C represents a percentage increase in necrosis relative to the control of 0.1-50) | Average of necrosis [1, 27]: B (B represents a percentage inhibition of 50-80) | Average of necrosis [1, 28]: B (B represents a percentage inhibition of 50-80) | Average of necrosis [1, 29]: B (B represents a percentage inhibition of 50-80) | Average of necrosis [1, 30]: A (A represents a percentage inhibition of 80-100) | Average of necrosis [1, 31]: C (C represents a percentage increase in necrosis relative to the control of 0.1-50) | Average of necrosis [1, 32]: C (C represents a percentage increase in necrosis relative to the control of 0.1-50) | Average of necrosis [1, 33]: C (C represents a percentage increase in necrosis relative to the control of 0.1-50) | Average of necrosis [1, 34]: C (C represents a percentage increase in necrosis relative to the control of 0.1-50) | Average of necrosis ([1]; 200 g/ha, day 5 post application): A (A represents a percentage inhibition of 80-100) | Average of necrosis ([1]; 200 g/ha, day 7 post application): A (A represents a percentage inhibition of 80-100) | Average of necrosis ([1]; 200 g/ha, day 10 post application): A (A represents a percentage inhibition of 80-100) | Average of necrosis [2, 3]: C (C represents a percentage increase in necrosis relative to the control of 0.1-50) | Average of necrosis [2, 4]: C (C represents a percentage increase in necrosis relative to the control of 0.1-50) | Average of necrosis [2, 5]: C (C represents a percentage increase in necrosis relative to the control of 0.1-50) | Average of necrosis [2, 6]: C (C represents a percentage increase in necrosis relative to the control of 0.1-50) | Average of necrosis [2, 7]: C (C represents a percentage increase in necrosis relative to the control of 0.1-50) | Average of necrosis [2, 8]: C (C represents a percentage increase in necrosis relative to the control of 0.1-50) | Average of necrosis [2, 9]: B (B represents a percentage inhibition of 50-80) | Average of necrosis [2, 10]: C (C represents a percentage increase in necrosis relative to the control of 0.1-50) | Average of necrosis [2, 11]: C (C represents a percentage increase in necrosis relative to the control of 0.1-50) | Average of necrosis [2, 12]: C (C represents a percentage increase in necrosis relative to the control of 0.1-50) | Average of necrosis [2, 13]: C (C represents a percentage increase in necrosis relative to the control of 0.1-50) | Average of necrosis [2, 14]: C (C represents a percentage increase in necrosis relative to the control of 0.1-50) | Average of necrosis [2, 15]: C (C represents a percentage increase in necrosis relative to the control of 0.1-50) | Average of necrosis [2, 16]: C (C represents a percentage increase in necrosis relative to the control of 0.1-50) | Average of necrosis [2, 17]: C (C represents a percentage increase in necrosis relative to the control of 0.1-50) | Average of necrosis [2, 18]: C (C represents a percentage increase in necrosis relative to the control of 0.1-50) | Average of necrosis [2, 19]: B (B represents a percentage inhibition of 50-80) | Average of necrosis [2, 20]: B (B represents a percentage inhibition of 50-80) | Average of necrosis [2, 21]: B (B represents a percentage inhibition of 50-80) | Average of necrosis [2, 22]: A (A represents a percentage inhibition of 80-100) | Average of necrosis [2, 23]: A (A represents a percentage inhibition of 80-100) | Average of necrosis [2, 24]: C (C represents a percentage increase in necrosis relative to the control of 0.1-50) | Average of necrosis [2, 25]: C (C represents a percentage increase in necrosis relative to the control of 0.1-50) | Average of necrosis [2, 26]: C (C represents a percentage increase in necrosis relative to the control of 0.1-50) | Average of necrosis [2, 27]: B (B represents a percentage inhibition of 50-80) | Average of necrosis [2, 28]: B (B represents a percentage inhibition of 50-80) | Average of necrosis [2, 29]: B (B represents a percentage inhibition of 50-80) | Average of necrosis [2, 30]: B (B represents a percentage inhibition of 50-80) | Average of necrosis [2, 31]: C (C represents a percentage increase in necrosis relative to the control of 0.1-50) | Average of necrosis [2, 32]: C (C represents a percentage increase in necrosis relative to the control of 0.1-50) | Average of necrosis [2, 33]: C (C represents a percentage increase in necrosis relative to the control of 0.1-50) | Average of necrosis [2, 34]: C (C represents a percentage increase in necrosis relative to the control of 0.1-50)

From patent US9951028B2, “Agricultural chemicals” (REDAG CROP PROTECTION LTD, priority 2013, dated 2018)
